Test results taken from patent publication US5821222A, “Cyclic depsipeptides having 18 ring atoms for combating endoparasites” (Bayer Aktiengesellschaft, priority 1992, dated 1998).

What was measured:
[1] = tested on: Trichinella spiralis; assay: Trichinella spiralis in vitro; assay type: cell-based; settings: Trichina larvae from mouse muscle, incubation 5 days at 19° C.; tested at 100, 10 and 1 μm/ml
Procedure: Trichinella spiralis in vitro
(§1) Trichina lavae are isolated from mice's muscle and washed in 0.9% NaCl supplemented with 20 μg/ml sisomycin and 2 μg/ml clotrimazole. The actual incubation of approximately 20 trichinae per measurement is carried out in 2 ml of a solution composed of 10 g of Bacto Casitone, 5 g of yeast (yeast extract), 2.5 g of glucose, 0.4 g of KH2 PO4 and 0.4 g of K2 HPO4 per 500 ml, pH 7.2, containing 10 μm/ml of sisomycin and 1 μm/ml of clotrimazole. 10 mg of the substance to be tested are dissolved in 0.5 ml of DMSO, and such an amount is added to the incubation medium that the end concentration is 100, 10 and 1 μm/ml. The experiment is evaluated after incubation for 5 days at 19° C.

[2] = tested on: Heterakis spumose; assay: Heterakis spumose in vitro test (mobility and egg excretion); assay type: cell-based; settings: 10 female nematodes, incubation 3 days at 37° C.
Procedure: as §1
Female Heterakis spumose nematodes are isolated from the colon and caecum of mice. 10 females are incubated for 3 days at 37° C. in 1.5 ml of medium used for the Trichinella spiarlis in-vitro test. The addition of test substances is likewise carried out as described for the trichina test. To test the anthelmintic activity, mobility and egg excretion are assessed in comparison with the control. Enniatins A1, B and B1 are active at a concentration of 10 μM/ml.

[3] = tested on: Haemonchus contortus; assay: In vivo nematode test Haemonchus contortus/sheep; settings: experimentally infected sheep, oral and/or intravenous; egg excretion stopped completely after treatment
Procedure: Haemonchus contortus/sheep
Shaft which have been infected experimentally with Haemonchus contortus were treated after the prepatent time of the parasite had elapsed. The active compounds were applied orally and/or intravenously in the form of the pure active compound.
The degree of effectiveness is determined by quantitatively counting the worm eggs excreted with the faeces before and after the treatment.
If the egg excretion has stopped completely after the treatment, this means that the worms were aborted or are damaged to such an extent that they no longer produce eggs (dosis effectiva).
Active compounds tested and effective dosage rates (dosis effectiva) can be seen from the table which follows: […]

## CC[C@H](C)[C@H]1C(=O)O[C@H](C(C)C)C(=O)N(C)[C@@H]([C@@H](C)CC)C(=O)O[C@H](C(C)C)C(=O)N(C)[C@@H](C(C)C)C(=O)O[C@H](C(C)C)C(=O)N1C [Enniatin A1, enniatin A1]
[1]
  effective concentration: 100 μm/ml
[2]
  active concentration (mobility and egg excretion compared with control): 10 μM/ml

## CC[C@H](C)[C@H]1C(=O)O[C@H](C(C)C)C(=O)N(C)[C@@H](C(C)C)C(=O)O[C@H](C(C)C)C(=O)N(C)[C@@H](C(C)C)C(=O)O[C@H](C(C)C)C(=O)N1C [Enniatin B1, enniatin B1]
[1]
  effective concentration: 100 μm/ml
[2]
  active concentration (mobility and egg excretion compared with control): 10 μM/ml

## CC(C)[C@H]1C(=O)O[C@H](C(C)C)C(=O)N(C)[C@@H](C(C)C)C(=O)O[C@H](C(C)C)C(=O)N(C)[C@@H](C(C)C)C(=O)O[C@H](C(C)C)C(=O)N1C [Enniatin B, enniatin B]
[1]
  effective concentration: 100 μm/ml
[2]
  active concentration (mobility and egg excretion compared with control): 10 μM/ml

## CC[C@H](C)[C@H]1C(=O)O[C@H](C)C(=O)N(C)[C@@H]([C@@H](C)CC)C(=O)O[C@H](C)C(=O)N(C)[C@@H]([C@@H](C)CC)C(=O)O[C@H](C)C(=O)N1C [Example 1, Cyclo(N-methyl-L-isoleucyl-D-lactyl-N-methyl-L-isoleucyl-D-lactyl-N-methyl- L-isoleucyl-D-lactyl-)]
[3]
  Dosis effectiva: 5 mg/kg
